Read-outs that look alike come from different tables or passages of the source.
What was measured:
[1] = tested on: Ryegrass, Italian (Italian ryegrass, Lolium multiflorum); assay: Test A preemergence, Ryegrass, Italian; type: in vivo; conditions: Lolium multiflorum, pre-emergence, 240 h, Preemergence; for pest or weed control at 125 g/ha: 125 g ai/ha; for pest or weed control at 500 g/ha: 500 g ai/ha
In short: (§1)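 Preemergence: seeded pots of loam plus sand received a directed soil spray. Postemergence: seedlings at one to two leaves, 2 to 10 cm high, were oversprayed. Each compound was formulated in a non-phytotoxic solvent mix that included a surfactant.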

[2] = tested on: barnyardgrass (Echinochloa crus-galli); assay: Test A postemergence, barnyardgrass; type: in vivo; conditions: Echinochloa crus-galli, post-emergence, 240 h, Postemergence, 0 to 100 scale (0 no effect, 100 complete control); for pest or weed control at 125 g/ha: 125 g ai/ha; for pest or weed control at 500 g/ha: 500 g ai/ha
In short: (§2)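 Directed soil spray at planting gave the preemergence treatment, while foliar application to one- to two-leaf seedlings (2–10 cm) gave the postemergence one; pots held a loam and sand mixture and chemicals were carried in a non-phytotoxic solvent with surfactant.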

[3] = tested on: blackgrass (Alopecurus myosuroides); assay: Test A postemergence, blackgrass; type: in vivo; conditions: Alopecurus myosuroides, post-emergence, 240 h, Postemergence, 0 to 100 scale (0 no effect, 100 complete control); for pest or weed control at 125 g/ha: 125 g ai/ha; for pest or weed control at 500 g/ha: 500 g ai/ha
In short: as §1

[4] = tested on: galium (catchweed bedstraw, Galium aparine); assay: Test A postemergence, galium; type: in vivo; conditions: Galium, post-emergence, 240 h, Postemergence, 0 to 100 scale (0 no effect, 100 complete control); for pest or weed control at 125 g/ha: 125 g ai/ha; for pest or weed control at 500 g/ha: 500 g ai/ha
In short: as §2

[5] = tested on: barnyardgrass (Echinochloa crus-galli); assay: Test B flooded paddy test, barnyardgrass; conditions: 336 h, read-out: Plant response rating, Barnyardgrass
[6] = visual injury on 0 to 100 scale (0 no effect, 100 complete control), approximately 10 days, read-out: Ryegrass, Italian plant response rating
[7] = 0 to 100 scale (0 no effect, 100 complete control), read-out: Plant response rating, Ryegrass, Italian
[8] = visual injury approx. 10 days, read-out: Plant response rating, Barnyardgrass
[9] = visual injury, approx. 10 days, read-out: Plant response rating, Barnyardgrass
[10] = visual injury approx. 10 days, read-out: Plant response rating, Blackgrass
[11] = visual injury, approx. 10 days, read-out: Plant response rating, Blackgrass
[12] = visual injury approx. 10 days, read-out: Plant response rating, Galium
[13] = visual injury, approx. 10 days, read-out: Plant response rating, Galium
[14] = visual injury vs untreated controls after approx. 10 days, read-out: Barnyardgrass plant response rating
[15] = visual injury vs untreated controls after approx. 10 days, read-out: Blackgrass plant response rating
[16] = visual injury vs untreated controls after approx. 10 days, read-out: Galium plant response rating
[17] = read-out: Plant response rating, Barnyardgrass
[18] = read-out: Plant response rating, Blackgrass
[19] = read-out: Plant response rating, Galium
[20] = visual injury, 0 to 100 scale (0 no effect, 100 complete control), approx. 10 days, read-out: Plant response rating, Ryegrass, Italian

Row | SMILES | pest or weed control at 125 g/ha [1, 6] [%] | pest or weed control at 500 g/ha [1, 7] [%] | pest or weed control at 125 g/ha [2, 8] [%] | pest or weed control at 500 g/ha [2, 9] [%] | pest or weed control at 125 g/ha [3, 10] [%] | pest or weed control at 500 g/ha [3, 11] [%] | pest or weed control at 125 g/ha [4, 12] [%] | pest or weed control at 500 g/ha [4, 13] [%] | pest or weed control at 250 g/ha [5] [%] | pest or weed control at 500 g/ha [2, 14] [%] | pest or weed control at 500 g/ha [3, 15] [%] | pest or weed control at 500 g/ha [4, 16] [%] | pest or weed control at 125 g/ha [2, 17] [%] | pest or weed control at 125 g/ha [3, 18] [%] | pest or weed control at 125 g/ha [4, 19] [%] | pest or weed control at 125 g/ha [1, 20] [%] | pest or weed control at 500 g/ha [1, 6] [%]
1 | Cc1cc(Cl)c(NS(=O)(=O)C(F)(F)F)cc1C(=O)N1CCOCC1 [Compound 16, N-[2-Chloro-4-methyl-5-(4-morpholinylcarbonyl)phenyl]-1,1,1-trifluoromethanesulfonamide] | 90 | 100 | 60 | 90 | 50 | 40 | 80 | 90 | 25 |  |  |  |  |  |  |  | 
2 | Cc1cc(Cl)c(NS(=O)(=O)C(F)(F)F)cc1C(=O)N1CCCCC1 [Compound 18, N-[2-Chloro-4-methyl-5-(1-piperidinylcarbonyl)phenyl]-1,1,1-trifluoromethanesulfonamide] | 90 | 90 | 0 | 70 | 0 | 0 | 80 | 80 | 0 |  |  |  |  |  |  |  | 
3 | CCc1cc(-c2cc(NS(=O)(=O)C(F)(F)F)c(C)cc2C)c(=O)n(C)n1 [Compound 34, N-[5-(6-Ethyl-2,3-dihydro-2-methyl-3-oxo-4-pyridazinyl)-2,4-dimethylphenyl]-1,1,1-trifluoromethanesulfonamide] | 30 | 70 | 0 | 0 | 0 | 0 | 10 | 0 | 0 |  |  |  |  |  |  |  | 
4 | Cc1cc(C)c(N(COC(=O)C(C)(C)C)S(=O)(=O)C(F)(F)F)cc1C1=NO[C@@H]2CCC[C@H]12 [Compound 100, [[2,4-Dimethyl-5-[(3aR,6aR)-3a,5,6,6a-tetrahydro-4H-cyclopent[d]isoxazol-3-yl]phenyl][(trifluoromethyl)sulfonyl]amino]methyl 2,2-dimethylpropanoate] | 40 | 70 | 80 |  | 0 |  | 80 |  | 90 | 90 | 0 | 90 |  |  |  |  | 
5 | Cc1cc(C)c(C2=NO[C@@H]3CCC[C@H]23)cc1NS(=O)(=O)C(F)(F)F [Compound 103, N-[2,4-Dimethyl-5-[(3aR,6aR)-3a,5,6,6a-tetrahydro-4H-cyclopent[d]isoxazol-3-yl]phenyl]-1,1,1-trifluoromethanesulfonamide] | 90 | 90 | 90 |  | 0 |  | 90 |  | 85 | 90 | 30 | 100 |  |  |  |  | 
6 | Cc1cc(C)c(C2=NOC3CCOCC23)cc1NS(=O)(=O)C(F)(F)F (centres unmarked) [Compound 120, N-[2,4-Dimethyl-5-(3a,6,7,7a-tetrahydro-4H-pyrano[3,4-d]isoxazol-3-yl)phenyl]-1,1,1-trifluoromethanesulfonamide] | 100 | 100 | 90 |  | 20 |  | 90 |  | 0 | 90 | 70 | 90 |  |  |  |  | 
7 | Cc1cc(C)c(C2=NOC3COCCC23)cc1NS(=O)(=O)C(F)(F)F (centres unmarked) [Compound 121, N-[2,4-Dimethyl-5-(3a,4,7,7a-tetrahydro-5H-pyrano[4,3-d]isoxazol-3-yl)phenyl]-1,1,1-trifluoromethanesulfonamide] | 100 | 100 | 90 |  | 40 |  | 90 |  | 40 | 90 | 80 | 90 |  |  |  |  | 
8 | Cc1c(NS(=O)(=O)C(F)(F)F)cc(C(=O)N(C)C)c(C)c1F [Compound 128, 3-Fluoro-N,N,2,4-tetramethyl-5-[[(trifluoromethyl)sulfonyl]amino]benzamide] | 100 | 100 | 50 |  | 10 |  | 80 |  | 30 | 90 | 30 | 90 |  |  |  |  | 
9 | Cc1cc(C)c(N(COC(=O)C(C)(C)C)S(=O)(=O)C(F)(F)F)cc1C1=NOC2(CCCC2)C1 [Compound 140, [[2,4-Dimethyl-5-(1-oxa-2-azaspiro[4.4]non-2-en-3-yl)phenyl][(trifluoromethyl)sulfonyl]amino]methyl 2,2-dimethylpropanoate] | 0 | 100 | 70 |  | 30 |  | 50 |  | 95 | 90 | 30 | 70 |  |  |  |  | 
10 | Cc1cc(C)c(N(COC(=O)C(C)(C)C)S(=O)(=O)C(F)(F)F)cc1C1=NOC2(CCCCC2)C1 [Compound 159, [[2,4-Dimethyl-5-(1-oxa-2-azaspiro[4.5]dec-2-en-3-yl)phenyl][(trifluoromethyl)sulfonyl]amino]methyl 2,2-dimethylpropanoate] | 0 | 30 |  |  |  |  |  |  | 65 | 80 | 20 | 90 | 30 | 0 | 80 |  | 
11 | Cc1c(NS(=O)(=O)C(F)(F)F)cc(C(=O)N2CCOCC2)c(C)c1F [Compound 190, 1,1,1-Trifluoro-N-[3-fluoro-2,4-dimethyl-5-(4-morpholinylcarbonyl)phenyl]methanesulfonamide] |  | 100 |  |  |  |  |  |  | 0 | 90 | 40 | 90 | 80 | 10 | 70 | 70 | 
12 | Cc1cc(C)c(C2=NOC3(CCCCC3)C2)cc1NS(=O)(=O)C(F)(F)F [Compound 197, N-[2,4-Dimethyl-5-(1-oxa-2-azaspiro[4.5]dec-2-en-3-yl)phenyl]-1,1,1-trifluoromethanesulfonamide] |  | 100 |  |  |  |  |  |  | 95 |  | 60 | 90 |  | 40 | 90 | 100 | 
13 | Cc1cc(C)c(C2=NOC3(CCCC3)C2)cc1NS(=O)(=O)C(F)(F)F [Compound 207, N-[2,4-Dimethyl-5-(1-oxa-2-azaspiro[4.4]non-2-en-3-yl)phenyl]-1,1,1-trifluoromethanesulfonamide] |  | 100 |  |  |  |  |  |  | 75 | 80 | 60 | 70 | 60 | 20 | 50 | 90 | 
14 | Cc1cc(Cl)c(NS(=O)(=O)C(F)(F)F)cc1C(=O)N1CCC(F)(F)CC1 [Compound 229, N-[2-Chloro-5-[(4,4-difluoro-1-piperidinyl)carbonyl]-4-methylphenyl]-1,1,1-trifluoromethanesulfonamide] |  |  |  |  |  |  |  |  | 10 |  | 70 | 90 |  | 20 | 90 | 60 | 90

Source: US20230278972A1, “SUBSTITUTED HALOALKYL SULFONANILIDE HERBICIDES” (FMC Corporation, priority 2020, published 2023)
